Test results reported in patent EP0430025A2, “Xanthine compound, method for preparing thereof, and a pharmaceutical composition comprising the same” (HOKURIKU PHARMACEUTICAL CO., LTD., priority 1989, dated 1991).

Columns and labels:
[1] = tested on: isolated guinea-pig atria; assay: Chronotropic activity in the isolated guinea-pig atrium (spontaneous beating rate of right atrium); conditions: 15% increase of spontaneous beating rate of right atrium; cumulative addition; 30°C
Procedure: Male Hartley guinea-pig weighing about 500 g was sacrificed and the right atrium was removed. The atrium was mounted vertically in an organ bath containing Krebs-Henseleit solution. The bath medium was maintained at 30°C and was equilibrated with a gas mixture consisting of 95% 0₂ and 5% CO₂. A restintion of 0.5 g was applied. The spontaneous beating rates for the right atrium were recorded by using a heart rate counter. The test compounds were added cumulatively to the bath. ED₁₅ values representing the amount of the compound which produced 15% increases of the spontaneous beating rates for the right atria were caluculated on the basis of the results obtained.

[2] = tested on: isolated dog mesenteric artery; assay: Relaxation activity in the isolated dog mesenteric artery (pre-contracted with prostaglandin F2α); conditions: for EC50: Canis lupus familiaris, 50% of maximal relaxation (10⁻⁴M papaverine), pre-contracted with prostaglandin F₂α 3 × 10⁻⁶ M, 37°C, read-out: relaxation activity in the isolated dog mesenteric artery ED₅₀; for relative effectiveness of the compounds to reference B: dog mesenteric artery ED₅₀ relative to reference compound B (propentofylline) = 1
Procedure: The mesenteric arteries were isolated from mongrel dogs of either sex weighing about 10kg. Each helical strip (2 mm in width and 20 mm in length) was mounted vertically in an organ bath containing Krebs-Henseleit solution. The bath medium was maintained at 37 °C and was equilibrated with a gas mixture consisting of 95% O₂ and 5% […]. A resting tension of 1.0 g was applied and the response was recorded isometrically. The preparations were pre-contracted with prostaglandin F₂ α (3 × 10⁻⁶ M) and the smooth muscle relaxations induced by the test compounds were recorded. The test compounds were added cumulatively to the bath. ED₅₀ values representing the amount of the compound which produces 50% relaxations of the maximal relaxations (10 ⁻⁴M papaverine) were caluculated on the basis of the results obtained above.

[3] = tested on: isolated guinea-pig trachea; assay: Relaxation activity in the isolated guinea-pig trachea (resting tonus, organ bath); conditions: for EC50: Cavia porcellus, 50% of maximal relaxation (10⁻⁶M isoproterenol), resting tonus, cumulative addition, 37°C, read-out: relaxation activity in the isolated guinea-pig trachea ED₅₀; for relative effectiveness of the compounds to reference A: guinea-pig trachea ED₅₀ relative to reference compound A (theophylline) = 1
Procedure: Male Hartley guinea-pigs weighing about 500 g were sacrificed and the trachea were removed. The tracheal chain strips were made and the preparations were mounted vertically in an organ bath containing Locke-Ringer solution. The bath medium was maintained at 37°C and was equilibrated with a gas mixture consisting of 95% O₂ and 5% CO₂. Relaxation activities of the test compounds on the resting tonus of the preparations were recorded isotonically. The test compounds were added cumulatively to the bath. ED₅₀ values representing the amount of the compound tested which produces 50% relaxations of the maximal relaxations (10⁻⁶M isoproterenol) were calculated on the basis of the results obtained above.

[4] = tested on: complete cerebral ischemia in mice; assay: Protective effect on complete cerebral ischemia in mice (gasping duration after decapitation); format: in vivo; conditions: 50 mg/kg, p.o., 30 minutes before decapitation; male ddY mice
Procedure: Male ddY mice weighing about 25 g were used. Complete cerebral ischemia was produced by the amputation of the cervix between the medulla oblongata and the spinal cord. The time between decapitation and the last gasp was recorded as gasping duration. Test compounds were suspended with 0.5% carboxymethylcellulose except propentofylline which was dissolved in distilled H₂O, and then administered orally 30 minutes before the decapitation. The gasping duration was evaluated at the dose of 50 mg/kg.

Row | Structure (SMILES) | chronotropic activity in the isolated guinea-pig atria ED₁₅ [1] | EC50 [2] | EC50 [3] | relative effectiveness of the compounds to reference B [2] | relative effectiveness of the compounds to reference A [3] | protective effect on complete cerebral iscehemia in mice gasping duration [4]
1 | CC(=O)Cn1c(=O)c2c(ncn2C)n(C2CC2)c1=O [Example 3, 3-Cyclopropyl-3,7-dihydro-7-methyl-1-(2-oxopropyl)-1H-purine-2,6-dione] | > 10 × 10⁻⁵ M |  |  |  |  | 
2 | CCn1c(=O)c2c(ncn2CC(C)=O)n(C2CC2)c1=O [Example 26, 3-Cyclopropyl-1-ethyl-3,7-dihydro-7-(2-oxopropyl)-1H-purine-2,6-dione] |  | 10 µM | 14 µM | 3.8 | 2.0 | 
3 | Cn1cnc2c1c(=O)n(CCCCC1(C)OCCO1)c(=O)n2C1CC1 [Example 38, 3-Cyclopropyl-3,7-dihydro7-methyl-1-[4-(2-methyl-1,3-dioxolan-2-yl)butyl]-1H-purine-2,6-dione] | > 10 × 10⁻⁵ M |  |  |  |  | 
4 | CCCCn1c(=O)c2c(ncn2CC2(C)OCCO2)n(C2CC2)c1=O [Example 40, 1-n-Butyl-3-cyclopropyl-3,7-dihydro-7-[(2-methyl-1,3-dioxolan-2-yl)methyl]-1H-purine-2,6-dione] | > 10 × 10⁻⁵ M |  | 16 µM |  | 1.8 | 
5 | Cn1c(=O)c2[nH]cnc2n(C)c1=O [Reference compound A, theophylline, reference compound] | 7.6 × 10⁻⁵ M |  | 28 µM |  | 1 | 
6 | CCCn1cnc2c1c(=O)n(CCCCC(C)=O)c(=O)n2C [Reference compound B, propentofylline, reference compound] | 5.1 × 10⁻⁵ M | 38 µM |  | 1 |  | 106.4%

The next lines start with results.

Row | chronotropic activity in the isolated guinea-pig atria ED₁₅ [1] | EC50 [2] | EC50 [3] | Structure (SMILES) | relative effectiveness of the compounds to reference B [2] | relative effectiveness of the compounds to reference A [3] | protective effect on complete cerebral iscehemia in mice gasping duration [4]
7 | > 10 × 10⁻⁵ M | 15 µM |  | CC(=O)CCCCn1c(=O)c2c(ncn2C)n(C2CC2)c1=O [Example 6, 3-Cyclopropyl-3,7-dihydro-7-methyl-1-(5-oxohexyl)-1H-purine-2,6-dione] | 2.5 |  | 
8 | > 10 × 10⁻⁵ M | 36 µM | 18 µM | CCCCn1cnc2c1c(=O)n(CCCCC(C)=O)c(=O)n2C1CC1 [Example 15, 7-n-Butyl-3-cyclopropyl-3,7-dihydro-1-(5-oxohexyl)-1H-purine-2,6-dione] | 1.1 | 1.6 | 112.3%
9 | > 10 × 10⁻⁵ M |  | 23 µM | CCCCCn1cnc2c1c(=O)n(CCCCC(C)=O)c(=O)n2C1CC1 [Example 16, 3-Cyclopropyl-3,7-dihydro-1-(5-oxohexyl)-7-n-pentyl-1H-purine-2,6-dione] |  | 1.2 | 107.8%
10 | > 10 × 10⁻⁵ M | 18 µM | 11 µM | CCCCCCn1cnc2c1c(=O)n(CCCCC(C)=O)c(=O)n2C1CC1 [Example 17, 3-Cyclopropyl-7-n-hexyl-3,7-dihydro-1-(5-oxohexyl)-1H-purine-2,6-dione] | 2.1 | 2.5 | 106.8%
11 | > 10 × 10⁻⁵ M |  |  | CC(=O)CCCCn1cnc2c1c(=O)n(C)c(=O)n2C1CC1 [Example 25, 3-Cyclopropyl-3,7-dihydro-1-methyl-7-(5-oxohexyl)-1H-purine-2,6-dione] |  |  | 
12 | > 10 × 10⁻⁵ M | 0.56 µM | 1.5 µM | CCCCn1c(=O)c2c(ncn2CC(C)=O)n(C2CC2)c1=O [Example 30, 1-n-Butyl-3-cyclopropyl-3,7-dihydro-7-(2-oxopropyl)-1H-purine-2,6-dione] | 68 | 19 | 
13 | > 10 × 10⁻⁵ M | 0.64 µM | 6 µM | CCCCCCn1c(=O)c2c(ncn2CC(C)=O)n(C2CC2)c1=O [Example 34, 3-Cyclopropyl-1-n-hexyl-3,7-dihydro-7-(2-oxopropyl)-1H-purine-2,6-dione] | 59 | 4.7 | 
